20 compounds from patent US20050107616A1, “Alpha-ketoamide derivatives as cathepsin k inhibitors” (priority 2001, published 2005) can be followed below.

The experiment addresses T1, human cathepsin K (Homo sapiens, UniProt P43235).
T1 construct: The proform of cathepsin K was converted to mature cathepsin K by brief exposure to pH 4; made in house; host or cells: baculovirus; Trichoplusia ni High Five cells (virus raised in Sf-9)
T1 sequence (P43235 115-329): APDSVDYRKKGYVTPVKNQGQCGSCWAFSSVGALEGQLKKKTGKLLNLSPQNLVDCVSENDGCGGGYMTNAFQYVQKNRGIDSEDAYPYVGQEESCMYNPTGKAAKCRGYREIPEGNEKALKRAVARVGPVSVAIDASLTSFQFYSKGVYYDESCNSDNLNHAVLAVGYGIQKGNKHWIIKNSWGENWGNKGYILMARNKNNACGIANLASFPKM
Briefly: Cathepsin K inhibition assay, fluorogenic substrate Cbz-Phe-Arg-AMC, progress curve method. Particulars: Table 1; human recombinant enzyme, pH 5.5, 30° C., 10 μM substrate; read-out: hCat K Ki. Format: biochemical. As for the experimental part: All assays for cathepsin K were carried out with human and rat recombinant enzyme. Assays for cathepsins S Et V were also carried out with human recombinant enzyme. Assays for human cathepsins B. H. and L were carried out with enzyme, purchased from Athens Research and Technology, Inc., prepared from human liver tissue. […] A stock substrate solution of Cbz-Phe-Arg-AMC was prepared at a concentration of 50 mM in dimethyl sulfoxide. This substrate was diluted into the assay for a final substrate concentration of 10 μM in the rat cathepsin K, human cathepsin K, and human cathepsin B assays; a final substrate concentration of 5 μM in the human cathepsin L assay; and a final substrate concentration of 2 μM in the human cathepsin V assay.
All assays contained 10% dimethyl sulfoxide. […] All assays were conducted at 30° C. Product fluorescence (excitation at 360 nm; emission at 440 nm, (except cathepsin H which used excitation at 340 nm; emission at 420 nm)) was monitored with a PerSeptive Biosystems Cytofluor II fluorescence plate reader. Product progress curves were generated over 2.3 h monitoring the formation of 7-amino-4-methylcoumarin product (or β-naphthalamide for cathepsin H).
Two liters of Spodoptera frugiperda (Sf-9) cells (ATCC) were grown in Grace's Supplemented medium (Life Technologies) supplemented with 2 g/L glucose, 10% a fetal bovine serum (HyClone) and 0.10% pluronic F-68 (Life Technologies). […] The cells continued to grow for 72 h post-infection, before the virus was harvested by centrifugation at 1400× g for 30 min.
One and one-half liters of Trichoplusia ni (T. ni) High Five (TM) cells [JRH Biosciences, Woodland, Calif. […] Media were separated from cells at a rate of 1 L/min using the Centritech 100 (TM) continuous-flow centrifuge (DuPont) operating at 200× g.
Protein Purification: Media (human and rat) were filtered through a Whatman 3 filter, and then loaded onto a 25 mL Poros HS II (26 mm×47 mm) cation exchange column equilibrated in 25 mM sodium acetate at pH 5.5 (equilibration buffer). The column was washed until the absorbance reached the baseline value, and then the protein was eluted with a linear gradient from 0-2 M sodium chloride in the equilibration buffer. Column fractions were analyzed by SDS-PAGE, N-terminal sequencing, and mass spectrometry. Fractions containing the proform of cathepsin K were pooled and frozen at −80° C. The proform was concentrated in an Amicon Centriprep 10 and fractionated with a Superdex 75 column (26 mm×600 mm, Pharmacia) equilibrated in 400 mM sodium chloride, 25 mM sodium acetate at pH 5.5.
Cathepsin K Activation: The proform of cathepsin K was converted to mature cathepsin K by brief exposure to pH 4 in the presence of 5 mM L-cysteine. Typically, 5 mM L-cysteine was added to 10 mL of approximately 1 mg/mL procathepsin K. One mL of this solution was diluted ten-fold into 450 mM sodium acetate at pH 4.0 containing 5 mM L-cysteine. This solution was reacted at 23° C. for 2 min before neutralization with 2 mL 1.8 M sodium acetate at pH 6.0. The neutralized sample was added to the remaining 9 mL of procathepsin K. The mixture was incubated at 4° C. for 2-3 days. The activated cathepsin K was chromatographed on a Poros HS II column as described above.
Potential inhibitors were evaluated using the progress curve method. Assays were carried out in the presence of variable concentrations of test compound. Reactions were initiated by addition of buffered solutions of inhibitor and substrate to enzyme. Data analysis was conducted according to one of two procedures depending on the appearance of the progress curves in the presence of inhibitors. […] Ki values were calculated from IC50 values using equation 2 assuming a competitive model. [formula]

Consider `CCCC[C@H](NC(=O)O[C@H](COc1ccc(C(N)=O)cc1)C(C)(C)C)C(=O)C(=O)Nc1ccn[nH]1` [Example 48, (1S)-1-{[4-(aminocarbonyl)phenoxy]methyl}-2,2-dimethylpropyl(1S)-1-[oxo(1H-pyrazol-5-ylamino)acetyl]pentylcarbamate], for which the Ki was in the range of 0.01 to 1 nM. For `CCCC[C@H](NC(=O)O[C@@H](c1cccc(-c2ccccc2)c1)C(C)(C)C)C(=O)C(=O)Nc1ccn[nH]1` [Example 41, (1R)-1-[1,1′-biphenyl]-3-yl-2,2-dimethylpropyl(1S)-1-[oxo(1H-pyrazol-5-ylamino)acetyl]pentylcarbamate], the Ki was 100 to 10000 nM. As for `CCCC[C@H](NC(=O)O[C@@H](c1nc2c(OCC)ccc(OCC)c2n1C)C(C)(C)C)C(=O)C(=O)Nc1ccn[nH]1` [Example 43], the Ki lay within 100 to 10000 nM. On to `CCCC[C@H](NC(=O)O[C@H](Cn1nccc1-c1ccc(C(F)(F)F)cc1)C(C)(C)C)C(=O)C(=O)Nc1ccn[nH]1` [Example 30, (1S)-2,2-dimethyl-1-({5-[4-(trifluoromethyl)phenyl]-1H-pyrazol-1-yl}methyl)propyl(1S)-1-[oxo(1H-pyrazol-5-ylamino)acetyl]pentylcarbamate], for which the Ki was 0.01 to 1 nM. Under `CCCC[C@H](NC(=O)O[C@H](Cn1ccc(-c2ccc(C(F)(F)F)cc2)n1)C(C)(C)C)C(=O)C(=O)NCc1ccno1` [Example 36, (1S)-2,2-dimethyl-1-({3-[4-(trifluoromethyl)phenyl]-1H-pyrazol-1-yl}methyl)propyl(1S)-1-[[(5-isoxazolylmethyl)amino](oxo)acetyl]pentylcarbamate] stands 1 to 100 nM. Take `CCCC[C@H](NC(=O)O[C@@H](c1nnc(-c2ccncc2)o1)C(C)(C)C)C(=O)C(=O)Nc1ccn[nH]1` [Example 55, (1R)-2,2-dimethyl-1-[5-(4-pyridinyl)-1,3,4-oxadiazol-2-yl]propyl (1S)-1-[oxo(1H-pyrazol-5-ylamino)acetyl]pentylcarbamate]: the Ki was in the range of 100 to 10000 nM. Turning to `CCCC[C@H](NC(=O)O[C@H](Cn1cnc(-c2cc(C(F)(F)F)cc(C(F)(F)F)c2)c1)C(C)(C)C)C(=O)C(=O)Nc1ccn[nH]1` [Example 50, (1S)-1-({4-[3,5-bis(trifluoromethyl)phenyl]-1H-imidazol-1-yl}methyl)-2,2-dimethylpropyl(1S)-1-[oxo(1H-pyrazol-5-ylamino)acetyl]pentylcarbamate], the Ki is 0.01 to 1 nM.

For `CCCC[C@H](NC(=O)O[C@H](Cn1ccc(-c2ccc(C(F)(F)F)cc2)n1)C(C)(C)C)C(=O)C(=O)Nc1nccs1` [Example 46, (1S)-2,2-dimethyl-1-({3-[4-(trifluoromethyl)phenyl]-1H-pyrazol-1-yl}methyl)propyl(1S)-1-[oxo(1,3-thiazol-2-ylamino)acetyl]pentylcarbamate], the Ki fell in the range of 0.01 to 1 nM. The value for `CCCC[C@H](NC(=O)O[C@H](Cc1nnc(-c2ccc(F)cc2)o1)C(C)(C)C)C(=O)C(=O)NCc1ccncc1` [Example 24, (1R)-1-{[5-(4-fluorophenyl)-1,3,4-oxadiazol-2-yl]methyl}-2,2-dimethylpropyl(1S)-1-{oxo[(4-pyridinylmethyl)amino]acetyl}pentylcarbamate] was 1 to 100 nM; that for `CCCC[C@H](NC(=O)O[C@H](Cn1cc(-c2ccc(C(F)(F)F)cc2)cn1)C(C)(C)C)C(=O)C(=O)Nc1ccn[nH]1` [Example 14, (1S)-2,2-dimethyl-1-({4-[4-(trifluoromethyl)phenyl]-1H-pyrazol-1-yl}methyl)propyl(1S)-1-[oxo(1H-pyrazol-5-ylamino)acetyl]pentylcarbamate] was 0.01 to 1 nM.

For `CCCC[C@H](NC(=O)O[C@H](Cc1nnc(-c2ccc(F)cc2)o1)C(C)(C)C)C(=O)C(=O)Nc1ccn[nH]1` [Example 23, (1R)-1-{[5-(4-fluorophenyl)-1,3,4-oxadiazol-2-yl]methyl}-2,2-dimethylpropyl(1S)-1-[oxo(1H-pyrazol-5-ylamino)acetyl]pentylcarbamate], the Ki lay in the range of 0.01 to 1 nM. The value for `CCCC[C@H](NC(=O)O[C@@H](Cc1nnc(-c2ccccc2)o1)C(C)(C)CC)C(=O)C(=O)N[C@H](C)c1ccccc1` [Example 9, (1S)-2,2-dimethyl-1-[(5-phenyl-1,3,4-oxadiazol-2-yl)methyl]butyl(1S)-1-(oxo{[(1R)-1-phenylethyl]amino}acetyl)pentylcarbamate] was 100 to 10000 nM; that for `CCCC[C@H](NC(=O)O[C@H](Cc1nnc(-c2ccccc2)o1)C(C)(C)CC)C(=O)C(=O)N[C@H](C)c1ccccc1` [Example 8, (1R)-2,2-dimethyl-1-[(5-phenyl-1,3,4-oxadiazol-2-yl)methyl]butyl (1S)-1-(oxo{[(1R)-1-phenylethyl]amino}acetyl)pentylcarbamate] was 1 to 100 nM. With `CCCC[C@H](NC(=O)O[C@H](c1nc2ccccc2s1)C(C)(C)C)C(=O)C(=O)Nc1ccn[nH]1` [Example 31, (1S)-1-(1,3-benzothiazol-2-yl)-2,2-dimethylpropyl(1S)-1-[oxo(1H-pyrazol-5-ylamino)acetyl]pentylcarbamate], the Ki was 0.01 to 1 nM. With `CCCC[C@H](NC(=O)O[C@H](Cc1nnc(-c2ccccc2)o1)C(C)C)C(=O)C(=O)N[C@H](C)c1ccccc1` [Example 10, (1R)-2-methyl-1-[(5-phenyl-1,3,4-oxadiazol-2-yl)methyl]propyl(1S)-1-(oxo{[(1R)-1-phenylethyl]amino}acetyl)pentylcarbamate], the Ki lay within 0.01 to 1 nM. In the case of `CCCC[C@H](NC(=O)O[C@H](Cc1nnc(-c2ccc(F)cc2)o1)C(C)(C)C)C(=O)C(=O)Nc1ccccn1` [Example 21, (1R)-1-{[5-(4-fluorophenyl)-1,3,4-oxadiazol-2-yl]methyl}-2,2-dimethylpropyl(1S)-1-[oxo(2-pyridinylamino)acetyl]pentylcarbamate], the Ki is 100 to 10000 nM. As for `CCCC[C@H](NC(=O)O[C@H](Cn1ccc(-c2ccc(C(F)(F)F)cc2)n1)C(C)(C)C)C(=O)C(=O)Nc1ccccn1` [Example 5, (1S)-2,2-dimethyl-1-({3-[4-(trifluoromethyl)phenyl]-1H-pyrazol-1-yl}methyl)propyl(1S)-1-[oxo(2-pyridinylamino)acetyl]pentylcarbamate], the Ki was 1 to 100 nM. With `CCCC[C@H](NC(=O)O[C@H](Cn1cnc(-c2ccc(F)cc2)c1)C(C)(C)C)C(=O)C(=O)N[C@H](C)c1ccccc1` [Example 6, (1S)-1-{[4-(4-fluorophenyl)-1H-imidazol-1-yl]methyl}-2,2-dimethylpropyl (1S)-1-(oxo{[(1R)-1-phenylethyl]amino}acetyl)pentylcarbamate], the Ki was in the range of 0.01 to 1 nM.

Take `CCCC[C@H](NC(=O)O[C@@H](Cc1nnc(-c2ccc(C(F)(F)F)cc2)o1)C(C)(C)C)C(=O)C(=O)N[C@H](C)c1ccccc1` [Example 18, (1S)-2,2-dimethyl-1-({5-[4-(trifluoromethyl)phenyl]-1,3,4-oxadiazol-2-yl}methyl)propyl(1S)-1-(oxo{[(1R)-1-phenylethyl]amino}acetyl)pentylcarbamate]: the Ki was in the range of 100 to 10000 nM.

Regarding `CCCC[C@H](NC(=O)O[C@H](Cn1ccc(-c2cccnc2)n1)C(C)(C)C)C(=O)C(=O)Nc1ccn[nH]1` [Example 44, (1S)-2,2-dimethyl-1-{[3-(3-pyridinyl)-1H-pyrazol-1-yl]methyl}propyl (1S)-1-[oxo(1H-pyrazol-5-ylamino)acetyl]pentylcarbamate], the Ki fell in the range of 0.01 to 1 nM.

As a reminder, the Ki is a measure of affinity in units of concentration, obtained from inhibition or displacement.
